Results published in ChEMBL document CHEMBL3714720, “Inhibiting G-protein coupled receptor 6 kinase polypeptides” (2014).

biological target: G protein-coupled receptor kinase 6 (Homo sapiens, UniProt P43250); test: Inhibition of human recombinant full-length GST-tagged human GRK6 using peptide substrate peptide-216 incubated for 7 hrs
Sequence (P43250 whole entry): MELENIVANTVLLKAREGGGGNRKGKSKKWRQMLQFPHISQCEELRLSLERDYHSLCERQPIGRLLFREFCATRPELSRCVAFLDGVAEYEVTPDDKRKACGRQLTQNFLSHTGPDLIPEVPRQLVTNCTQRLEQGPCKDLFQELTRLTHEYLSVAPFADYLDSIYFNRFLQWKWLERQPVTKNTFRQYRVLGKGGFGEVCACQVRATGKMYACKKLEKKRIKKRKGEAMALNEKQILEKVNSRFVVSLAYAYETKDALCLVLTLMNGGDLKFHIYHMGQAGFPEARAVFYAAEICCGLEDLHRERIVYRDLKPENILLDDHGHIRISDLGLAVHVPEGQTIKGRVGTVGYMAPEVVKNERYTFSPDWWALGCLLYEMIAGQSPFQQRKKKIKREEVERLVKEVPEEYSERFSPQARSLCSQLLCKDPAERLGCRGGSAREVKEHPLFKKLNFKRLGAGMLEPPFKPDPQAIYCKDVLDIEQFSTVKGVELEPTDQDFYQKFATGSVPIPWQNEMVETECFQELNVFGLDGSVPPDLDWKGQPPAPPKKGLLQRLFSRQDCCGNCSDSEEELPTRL

IC50 [µM] | SMILES
> 100 | COc1ccc(-c2nnc(SCC(=O)O)[nH]2)c(OC)c1C
> 100 | COc1ccc(-c2nnc(SCC(=O)O)[nH]2)c(OC)c1OC
3.58 | Cc1cccc(Oc2ccc(-c3nnc(SCC(=O)O)[nH]3)cc2[N+](=O)[O-])c1
> 74 | O=C(O)CSc1nnc(-c2cccc(C(=O)O)c2)[nH]1
77.5 | COc1ccc([N+](=O)[O-])cc1-c1nnc(SCC(=O)O)[nH]1
> 100 | COc1c(F)cccc1-c1nnc(SCC(=O)O)[nH]1
3.3 | COc1cc(-c2nnc(SCC(=O)O)[nH]2)cc(F)c1O
> 100 | O=C(O)CSc1nnc(-c2cc(C(=O)O)ccc2O)[nH]1
> 100 | COc1cc([N+](=O)[O-])ccc1-c1nnc(SCC(=O)O)[nH]1
> 100 | O=C(O)CSc1nnc(-c2ccccc2N2CCOCC2)[nH]1
1.05 | COc1ccc(-c2nnc(SCC(=O)O)[nH]2)cc1[N+](=O)[O-]
> 100 | COc1cc(O)cc(OC)c1-c1nnc(SCC(=O)O)[nH]1
14.1 | O=C(O)CSc1nnc(-c2cc([N+](=O)[O-])ccc2O)[nH]1
> 100 | COc1cccc(O)c1-c1nnc(SCC(=O)O)[nH]1
> 100 | COc1cc(-c2nnc(SCC(=O)O)[nH]2)c([N+](=O)[O-])cc1OC
> 100 | CC(=O)CSc1nnc(-c2cccc(C)c2)[nH]1
10.3 | COc1ccc(NC(c2ccccn2)c2ccc3cccnc3c2O)cc1 (centres undefined)
> 100 | O=C(O)CSc1nnc(-c2ccccc2OCCN2CCCC2)[nH]1
0.751 | Cc1ccc(-c2nnc(SCC(=O)O)[nH]2)cc1[N+](=O)[O-]
> 100 | Cc1cccc(-c2nnc(SCCC(=O)O)n2C)c1
> 100 | CN(C)CCCOc1ccccc1-c1nnc(SCC(=O)O)[nH]1
> 100 | COc1ccc(-c2nnc(SCC(=O)O)[nH]2)c(Cl)c1OC

IC50 [µM] | SMILES
4.52 | COc1cc(-c2nnc(SCC(=O)O)[nH]2)ccc1F
> 100 | O=C(O)COc1ccccc1-c1nnc(SCC(=O)O)[nH]1
> 70 | O=C(O)CSc1nnc(-c2cccc([N+](=O)[O-])c2O)[nH]1
> 100 | Cc1cccc(-c2n[nH]c(SCC(N)=O)n2)c1
> 100 | O=C(O)CSc1nnc(-c2ccccc2C(=O)O)[nH]1
> 100 | NC(=O)c1ccccc1-c1nnc(SCC(=O)O)[nH]1
> 100 | COc1cccc(OC)c1-c1nnc(SCC(=O)O)[nH]1
> 100 | CN1CCN(c2ccc(-c3nnc(SCC(=O)O)[nH]3)c(F)c2)CC1
> 100 | COc1ccc(OC)c(-c2nnc(SCC(=O)O)[nH]2)c1
> 100 | Cc1cccc(-c2nnc(SCCC(=O)O)[nH]2)c1
> 100 | COC(=O)CSc1nnc(-c2cccc(C)c2)[nH]1
> 100 | COC(=O)c1ccccc1-c1nnc(SCC(=O)O)[nH]1
> 100 | Cc1cccc(-c2nnc(SCC(=O)N(C)C)[nH]2)c1
> 60 | Cc1coc(-c2ccccc2NS(=O)(=O)c2ccc(S(=O)(=O)N3CCCCCC3)cc2)c1
> 100 | CN(C)c1ccc(-c2nnc(SCC(=O)O)[nH]2)cc1
> 100 | Cc1cccc(-c2nnc(SCC(=O)O)n2C)c1
> 100 | COc1cc(OC)c(-c2nnc(SCC(=O)O)[nH]2)cc1OC
> 100 | COc1cccc(-c2nnc(SCC(=O)O)[nH]2)c1OC
> 100 | COc1cc(N(C)C)ccc1-c1nnc(SCC(=O)O)[nH]1
> 100 | Cc1cccc(-c2nnc(SC(C)C(=O)O)n2C)c1 (centres undefined)
34.8 | COc1cc([N+](=O)[O-])cc(-c2nnc(SCC(=O)O)[nH]2)c1O
> 100 | COc1cccc(-c2nnc(SCC(=O)O)[nH]2)c1OCc1ccccc1
